{"source": "patent US20220296629A1", "about": "“HUMAN HEAD AND NECK CANCER TREATMENT” (CARMEL HAIFA […] CORPORATION LTD., priority 2019, published 2022)", "key": {"miR-193a": {"test_system": "miR-193a", "assay": "miR-193a expression levels in Fadu cells by quantitative real-time PCR", "type": "cell-based, Homo sapiens", "details": "5 μM, 48 hours, U6 normalization, vs 0.01% DMSO control", "protocol": "FIG. 8 includes a vertical bar graph showing Real-time analysis of miRNA expression patterns in Fadu Cells. The expression levels of miRNAs; hsa-mir193a were analysed using Quantitative real-time PCR, following 5-aza-2′ -deoxycytidine cell treatment. Data represented as average of three independent experiments conducted in triplicates (mean±SD) and U6 was used as normalization. Statistical significance determined by a two-tailed Student's t-test. Significance was determined as follows: ***P<0.01.\nmiRNA was isolated using mirVana™ miRNA Isolation Kit (Ambion®) according the manufacturer's protocol, the mirVana™ kit utilizes two sequential GFFs, since the small […]\nThe concentration and purity of miRNA was assessed using NanoDrop™ lite spectrophotometer (NanodropTechnologies, Willmington, Del., USA). miRNA expression profiling was performed using the TaqMan microRNA arrays system (Applied Biosystems) with specific TaqMan primers and probes for miR-193a. cDNA was generated using TaqMan microRNA assay using Primers for the mir-193a with FAM/MGB. […] Real time PCR was carried out with Rotor Gene 6000 Real-Time PCR Machine-Bosch-Bosch, results were analyzed with delta delta Ct (ΔΔCt) method using the rotor Gene 6000 Real-Time PCR software. […]\nmiRNA were isolated, quantified, profiled and cDNA was generated. […]"}, "Fadu cells [1]": {"test_system": "Fadu cells", "assay": "XTT cell viability after transient transfection of Fadu cells", "type": "cell-based", "details": "1 μg plasmid, 48 hours post transfection, viability reduced to", "protocol": "FIG. 2 includes a vertical bar graph of cell viability following miR-193a-5p plasmid transfection. Squamous cancer cells Fadu were transfected with pCMV-miR-193a, or with p-CMV-GFP (MOC plasmid), 48 hours post transfection. cell viability was detected by XTT. Presented data are means±SD of three experiments, each conducted in eight replicates, and are expressed as percentages of the respective control. ***P<0.001(Dunnett's test).\nFIG. 3 includes a vertical bar graph of cell viability following miR-193a-5p plasmid transfection time course experiment. Squamous cancer cells Fadu were transfected with miR-193a-5p or with MOC plasmid, 24 hours, 48 hours and 72 hours post transfection. cell viability was detected by XTT. Presented data are means±SD of three experiments, each conducted in eight replicates, and are expressed as percentages of the respective control. Statistical significance determined by a two-tailed student's t-test. Significance was determined as follows: *P<0.05, **P<0.01 and ***P<0.001.\nFadu Cells were seeded in a 96 well plate (3×10^4 cells/well). […]\nAt the end of treatment, cell viability was measured using XTT. The data presented are average of at least three independent experiments; 8 repeats each (means±SEM), and are expressed as percentage of the respective vehicle treated control. […]"}, "Fadu cells [2]": {"test_system": "Fadu cells", "assay": "Fadu xenograft tumor growth in athymic nude mice", "type": "in vivo", "details": "tumors harvested 21 days post treatment, P<0.0001", "protocol": "FIG. 6 includes a graph presenting data from 16 athymic nude male mice which were subcutaneously injected with 1×10^6 Fadu cells. When the tumors reached a volume of 200 mm^3 the mice were divided into 2 groups of 8 mice each, with a similar dispersal of tumor volumes. Mice were injected once a week with intraperitoneal (IP) injection of either PBS×1 to the control group, or 1×10^10 vp AD-miR-193a, for 3 weeks. During the experiments, tumor volumes were measured twice a week using caliber meter. The results presented are the mean±SE. n=8 mice per experimental group.\nFIGS. 7A-7B include vertical bar graphs showing the effect of miR-193a on final tumor weight (7A) and volume (7B). The results presented are the mean±SE. n=8 tumors per experimental group. Statistical significance for tumor weight determined by Mann-Whitney and for tumor volume by two-tailed Student's t-test (treatment vs. control). ***P<0.01.\nXenograft animal model were generated via injection of 1×10^6 Fadu cells in Matrigel subcutaneous in athymic nude mice immunodeficient mice. When the tumors reached a volume of 200 mm^3 the mice were divided into 2 groups of 8 mice each, with a similar dispersal of tumor volumes. […]\nTumors were measured by electronic calliper, once a week. 21 days post treatment the tumors were harvested and weight was measured.\nThe animals were sacrificed, and the tumors were removed, weighed and measured. […]"}}, "data": [{"compound": "Nc1ncn([C@H]2C[C@H](O)[C@@H](CO)O2)c(=O)n1", "note": "[5-aza, 5-aza-2′ -deoxycytidine]", "values": [{"measurement": "Increase in miR-193a expression levels", "setting": "miR-193a", "value": 132, "unit": "folds"}]}, {"compound": "miR-193a: Homo sapiens miR-193a, SEQ ID NO:1 UGGGUCUUUGCGGGCGAGAUGA; delivered as CMV plasmid or adenovirus AD-miR-193a (listed as Homo sapiens)", "values": [{"measurement": "Cell viability (XTT), percentage of control", "setting": "Fadu cells [1]; first experiment", "value": "approximately 70%"}, {"measurement": "Cell viability (XTT), percentage of control", "setting": "Fadu cells [1]; second and third experiment", "value": "~40", "unit": "%"}, {"measurement": "Final tumor volume vs control", "setting": "Fadu cells [2]", "value": "significantly reduced"}, {"measurement": "Final tumor weight vs control", "setting": "Fadu cells [2]", "value": "significantly reduced"}]}]}
